Our source for the TGI values is PubChem BioAssay (NCI).

Among the test systems are SR leukemia; BT-549 breast; HOP-92 NSCLC; SNB-75 CNS; HT29 colon; KM12 colon; NCI-H460 lung; MDA-MB-435; A549 NSCLC; PC-3 prostate.
Experiment in all cases: inhibition of tumour cell growth, NCI panel, 48 h

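96-well plates; 48 h exposure; 5 concentrations. Endpoints by linear interpolation between flanking doses. Not reached: highest tested concentration assigned. TGI denotes the concentration required for complete inhibition of growth.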 Where a SMILES comes first, the peptide text is derived from it. [ ]: non-standard residue; d: D form. The star is where a group is joined. hSer = N[CH](CCO)C(=O)O; Boc = CC(C)(C)OC(=O)*

`C1=C2SSC3=CC=C(SSc4ccc(s4)SSC4=CC=C(SSC(=C1)S2)S4)S3`: the TGI in the assay with SR leukemia, in the assay on BT-549 breast, in the assay with HOP-92 NSCLC, in the assay on SNB-75 CNS, in the assay on HT29 colon and with KM12 colon was over 100 µM in each case. For the same molecule, the TGI in the assay on NCI-H460 lung, with MDA-MB-435, in the assay with A549 NSCLC and in the assay with PC-3 prostate was over 100 µM each time.
With `C/C(=N\Nc1nc2cc(C)ccc2s1)c1ccccn1`, the TGI with SR leukemia was over 21.8 µM; in the assay with BT-549 breast it was over 69.1 µM; in the assay with HOP-92 NSCLC, 10.3 µM; in the assay on SNB-75 CNS, 22.7 µM; with HT29 colon it was 6.69 µM; in the assay on KM12 colon, 12.6 µM. The TGI with NCI-H460 lung was 52.8 µM; with MDA-MB-435, over 64.5 µM; in the assay with A549 NSCLC, over 31.6 µM; in the assay on PC-3 prostate, over 23.1 µM.
Consider `N/C(CC/C(N)=N\O)=N\O`, for which the TGI with SR leukemia, with BT-549 breast, in the assay on HOP-92 NSCLC, in the assay with SNB-75 CNS, in the assay with HT29 colon and in the assay on KM12 colon was over 100 µM in each case. The TGI with NCI-H460 lung, with MDA-MB-435, in the assay on A549 NSCLC and in the assay with PC-3 prostate was over 100 µM in each case.
`CCCCCCCCCCCCNC(=O)NCC(OCC)OCC`: the TGI in the assay on SR leukemia, in the assay with BT-549 breast, in the assay with HOP-92 NSCLC, with SNB-75 CNS, in the assay on HT29 colon and with KM12 colon was over 10 µM in each case. Besides, the TGI in the assay with NCI-H460 lung, in the assay with MDA-MB-435, in the assay with A549 NSCLC and with PC-3 prostate was over 10 µM throughout.
Regarding `COC1/C=C\C=C(/C)C(=O)NC2=CC(=O)C(NCCCl)=C(CC(C)CC(OC)C(O)C(C)/C=C(/C)C1OC(N)=O)C2=O` (stereo not given), the TGI in the assay with SR leukemia stood at 1.67 µM; in the assay with BT-549 breast it was 2.85 µM; in the assay on HOP-92 NSCLC, 18.6 µM; with SNB-75 CNS, 3.81 µM; in the assay on HT29 colon, 1.92 µM; with KM12 colon it was 2.01 µM. In addition, the TGI with NCI-H460 lung was 2.52 µM; in the assay with MDA-MB-435, 3.72 µM; with A549 NSCLC, 14.3 µM; in the assay on PC-3 prostate, 8.84 µM.
For `COCCC(NC(=O)C(CC(C)C)NC(=O)OC(C)(C)C)C(N)=O` (stereo not drawn) (Boc-Leu-[hSer](Me)-NH2; configuration not given here), the TGI with SR leukemia, with BT-549 breast, in the assay on HOP-92 NSCLC, in the assay with SNB-75 CNS, with HT29 colon and in the assay on KM12 colon was over 100 µM throughout. The TGI in the assay with NCI-H460 lung, with MDA-MB-435, with A549 NSCLC and in the assay with PC-3 prostate was over 100 µM in each case.
For `COc1ccc(C2CC(c3cc4c(C)c(C(=O)c5ccccc5)oc4cc3O)=Nc3ccccc3S2)cc1OC` (stereo not given), the TGI with SR leukemia was over 100 µM; in the assay with BT-549 breast it was over 100 µM; in the assay on HOP-92 NSCLC, over 73.7 µM; in the assay with SNB-75 CNS it was over 100 µM; in the assay with HT29 colon, over 100 µM; in the assay on KM12 colon, over 34.8 µM. Further, the TGI in the assay on NCI-H460 lung is over 100 µM; with MDA-MB-435, 2.05 µM; with A549 NSCLC it was over 100 µM; with PC-3 prostate, over 100 µM.
As to `c1ccc(COc2ccc(C[P+](c3ccccc3)(c3ccccc3)c3ccccc3)cc2)cc1`, the TGI was over 24.2 µM in the assay on SR leukemia; 3.26 µM with BT-549 breast; 0.585 µM in the assay on HOP-92 NSCLC; 2.99 µM with SNB-75 CNS; 2.02 µM in the assay on HT29 colon; 1.66 µM in the assay with KM12 colon. The TGI in the assay with NCI-H460 lung turned out to be 3.81 µM; in the assay with MDA-MB-435 it was 1.7 µM; with A549 NSCLC it was 11.3 µM; with PC-3 prostate, 3.07 µM.
Turning to `O=C1N[C@H]2c3c(Cl)sc(Cl)c3C(=O)[C@H]2O1`, the TGI in the assay on SR leukemia is 5.81 µM; in the assay on BT-549 breast it was 45 µM; with HOP-92 NSCLC, 41.6 µM; in the assay with SNB-75 CNS, 34.9 µM; in the assay on HT29 colon it was 13.8 µM; in the assay on KM12 colon, over 100 µM. In addition, the TGI in the assay on NCI-H460 lung is 37 µM; with MDA-MB-435 it was 36 µM; in the assay on A549 NSCLC, over 100 µM; in the assay on PC-3 prostate, over 62.5 µM.
For the molecule `O=S(=O)(O)c1cc(Cl)c(O)c2ncc(Cl)cc12`, the TGI with SR leukemia, in the assay on BT-549 breast, in the assay on HOP-92 NSCLC, in the assay on SNB-75 CNS, in the assay with HT29 colon and in the assay on KM12 colon was over 100 µM in each case. For the same molecule, the TGI in the assay on NCI-H460 lung, in the assay on MDA-MB-435, with A549 NSCLC and in the assay on PC-3 prostate was over 100 µM in each case.
As for `CCOC(=O)C1(Cc2ccc(C)cc2)Cc2ccc(C)cc2C1=O` (stereo not given), the TGI is 68.8 µM in the assay with SR leukemia; 80.8 µM in the assay on BT-549 breast; over 100 µM in the assay with HOP-92 NSCLC; over 100 µM with SNB-75 CNS; 49.1 µM in the assay on HT29 colon; over 72.3 µM in the assay with KM12 colon. Moreover, the TGI with NCI-H460 lung was 82.4 µM; in the assay on MDA-MB-435 it was 12.2 µM; with A549 NSCLC, over 100 µM; with PC-3 prostate, over 100 µM.
As to `COc1ccc(C[C@@H]2CN(C(=O)c3ccccc3)[C@H](Cc3ccc(O)cc3)CN2C(=O)c2ccccc2)cc1Br`, the TGI in the assay on SR leukemia, in the assay with BT-549 breast, in the assay with HOP-92 NSCLC, with SNB-75 CNS, with HT29 colon and in the assay with KM12 colon was over 100 µM throughout. Further, the TGI with NCI-H460 lung, with MDA-MB-435, in the assay on A549 NSCLC and in the assay on PC-3 prostate was over 100 µM each time.
With `COc1ccc(-c2nc3ncccn3c2-c2ccc(S(C)=O)cc2)cc1` (stereo not given), the TGI with SR leukemia, with BT-549 breast, in the assay on HOP-92 NSCLC, in the assay with SNB-75 CNS, with HT29 colon and in the assay on KM12 colon was over 100 µM each time. For the same molecule, the TGI in the assay with NCI-H460 lung is over 100 µM; in the assay on MDA-MB-435, 53.8 µM; in the assay with A549 NSCLC, over 100 µM; with PC-3 prostate, over 100 µM.
On to `COc1ccc2nc3ccc(OC)cc3c(S(=O)Cc3ccc([N+](=O)[O-])cc3)c2c1` (stereo not given), for which the TGI with SR leukemia is over 33.6 µM; in the assay on BT-549 breast it was 33.4 µM; with HOP-92 NSCLC, over 23.5 µM; with SNB-75 CNS, 35.9 µM; in the assay with HT29 colon, 6.33 µM; in the assay with KM12 colon it was 42 µM. Besides, the TGI is 67.4 µM with NCI-H460 lung, 26 µM in the assay with MDA-MB-435, over 58 µM with A549 NSCLC and 27.6 µM with PC-3 prostate.
For the molecule `COC(=O)C1Cc2c(C)cccc2C1=O` (stereo not given), the TGI in the assay on SR leukemia, with BT-549 breast, in the assay with HOP-92 NSCLC, in the assay with SNB-75 CNS, in the assay on HT29 colon and in the assay with KM12 colon was over 100 µM in each case. Moreover, the TGI in the assay with NCI-H460 lung, in the assay on MDA-MB-435, in the assay on A549 NSCLC and in the assay with PC-3 prostate was over 100 µM in each case.
`COc1ccc(CN2C(=O)CCC/C=C\[C@H]2CI)cc1`: the TGI is over 100 µM in the assay on SR leukemia; 33.7 µM with BT-549 breast; 25.3 µM in the assay on HOP-92 NSCLC; 17.5 µM with SNB-75 CNS; 21.5 µM with HT29 colon; 23 µM in the assay on KM12 colon. Besides, the TGI in the assay with NCI-H460 lung worked out at 25.7 µM; in the assay on MDA-MB-435, 25.2 µM; in the assay on A549 NSCLC it was 21.5 µM; in the assay on PC-3 prostate, 20.7 µM.
As for `CCC1(O)C=CC(=O)C=C1`, the TGI was over 100 µM in the assay on SR leukemia; over 100 µM in the assay on BT-549 breast; 75.9 µM in the assay on HOP-92 NSCLC; over 96.1 µM with SNB-75 CNS; over 100 µM in the assay on HT29 colon; 33.5 µM in the assay on KM12 colon. Further, the TGI with NCI-H460 lung was over 83.2 µM; with MDA-MB-435, over 100 µM; in the assay with A549 NSCLC, over 100 µM; with PC-3 prostate, over 62.2 µM.
`NCCC1(N)CCNCC1`: the TGI with SR leukemia, in the assay with BT-549 breast, in the assay with HOP-92 NSCLC, in the assay on SNB-75 CNS, with HT29 colon and in the assay with KM12 colon was over 100 µM each time. Further, the TGI with NCI-H460 lung, in the assay on MDA-MB-435, in the assay on A549 NSCLC and with PC-3 prostate was over 100 µM in each case.
As to `O=C(C=P(c1ccccc1)(c1ccccc1)c1ccccc1)C12CC3CC(CC(C3)C1)C2`, the TGI in the assay with SR leukemia was over 100 µM; with BT-549 breast it was 33.8 µM; in the assay on HOP-92 NSCLC, 43.2 µM; with SNB-75 CNS it was 33.3 µM; with HT29 colon it was 23.2 µM; in the assay with KM12 colon, 32 µM. The TGI is 31.3 µM in the assay with NCI-H460 lung, 26.6 µM with MDA-MB-435, 36 µM with A549 NSCLC and 24 µM in the assay on PC-3 prostate.
